Measured values taken from patent US9199962B2, “Substituted azaheterocycles for the treatment of cancer” (Merck Patent GmbH, priority 2011, dated 2015).
Like-named read-outs stand apart in the source and are kept apart here. Blank lines part the entries; values can stand above or below the compound they belong to.

Target: T1, GST-FAK (N-terminal GST fusion with truncated human FAK (376-1052 (end) amino acids)) (Homo sapiens, UniProt Q05397)
T1 construct: truncated human FAK (376-1052 (end) amino acids)
Test: Biochemical enzyme assay for FAK activity (Caliper LC3000 mobility shift)
Details: 100 uM ATP, read-out: FAK IC50
In short: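 Inhibitor dose series in DMSO were incubated 90 min at 25 °C with truncated GST-tagged human FAK (0.067 ng/µl) and FITC-labelled peptide substrate (1 µM), with ATP at 100 µM and FERM peptide at 1 mM (pH 7.5 HEPES). After EDTA quench, phosphorylated and unphosphorylated peptides were resolved electrophoretically. Percent conversion was fitted for IC50.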

T1 sequence (Q05397 376-1052): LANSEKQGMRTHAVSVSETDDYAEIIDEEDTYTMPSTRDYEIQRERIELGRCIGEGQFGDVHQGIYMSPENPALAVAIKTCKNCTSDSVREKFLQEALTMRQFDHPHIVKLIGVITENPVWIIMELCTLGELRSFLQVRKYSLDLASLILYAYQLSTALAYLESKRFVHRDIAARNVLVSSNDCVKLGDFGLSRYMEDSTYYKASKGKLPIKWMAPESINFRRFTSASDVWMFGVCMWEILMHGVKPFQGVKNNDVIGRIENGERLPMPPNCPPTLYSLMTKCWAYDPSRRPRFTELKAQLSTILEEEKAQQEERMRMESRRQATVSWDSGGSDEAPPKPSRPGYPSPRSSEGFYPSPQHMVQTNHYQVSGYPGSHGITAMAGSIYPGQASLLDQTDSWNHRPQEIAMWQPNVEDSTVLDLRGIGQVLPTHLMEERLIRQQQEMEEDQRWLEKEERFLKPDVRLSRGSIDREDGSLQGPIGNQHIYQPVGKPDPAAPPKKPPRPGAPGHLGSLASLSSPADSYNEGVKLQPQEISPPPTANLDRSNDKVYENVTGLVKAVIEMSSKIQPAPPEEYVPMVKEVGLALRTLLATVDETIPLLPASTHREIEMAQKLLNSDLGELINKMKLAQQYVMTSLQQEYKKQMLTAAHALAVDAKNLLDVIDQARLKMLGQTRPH

IC50 (Table 5): 1 to 10 µM
SMILES: Fc1ccc(CNc2ccnc(-c3cccnc3F)n2)c(F)c1 [Compound 212, (2,4-Difluoro-benzyl)-[2-(2-fluoro-pyridin-3-yl)-pyrimidin-4-yl]-amine]

IC50 (Table 3): > 10 µM
SMILES: Nc1ncccc1-c1nccc(NCc2cccc(F)c2)n1 [Compound 79, 2-(2-Aminopyridin-3-yl)-N-(3-fluorobenzyl)pyrimidin-4-amine]

IC50 (Table 5): 0.1 to 1 µM
SMILES: O=C(Nc1cccnc1)c1cc(NCc2ccc(F)cc2F)nc(-c2cncc(C(F)(F)F)c2)n1 [Compound 261, 6-(2,4-Difluoro-benzylamino)-2-(5-trifluoromethyl-pyridin-3-yl)-pyrimidine-4-carboxylic acid pyridin-3-ylamide]

IC50 (Table 3): 1 to 10 µM
SMILES: Nc1ccc(-c2nccc(NCc3ccccc3C(F)(F)F)n2)cn1 [Compound 94, 2-(6-Aminopyridin-3-yl)-N-[2-(trifluoromethyl)benzyl]pyrimidin-4-amine]

IC50 (Table 5): 1 to 10 µM
SMILES: CS(=O)(=O)N1CCOC(CNc2ccnc(-c3cncc(C(F)(F)F)c3)n2)C1 (stereo not drawn) [Compound 249, (4-Methanesulfonyl-morpholin-2-ylmethyl)-[2-(5-trifluoromethyl-pyridin-3-yl)-pyrimidin-4-yl]-amine]

IC50 (Table 5): > 10 µM
SMILES: CS(=O)(=O)Nc1cccc(-c2nccc(NCc3ccc(F)cc3C(F)(F)F)n2)c1 [Compound 245, N-{3-[4-(4-Fluoro-2-trifluoromethyl-benzylamino)-pyrimidin-2-yl]-phenyl}-methanesulfonamide]

IC50 (Table 1): > 10 µM
SMILES: O=C(c1cncc(-c2nccc(NCc3cccc(-n4cccn4)c3)n2)c1)N1CCOCC1 [Compound 34, Morpholin-4-yl-{5-[4-(3-pyrazol-1-yl-benzylamino)-pyrimidin-2-yl]-pyridin-3-yl}-methanone]

IC50 (Table 1): > 10 µM
SMILES: Fc1cncc(-c2nccc(NCc3ccc(N4CCOCC4)cc3)n2)c1 [Compound 10, [2-(5-Fluoro-pyridin-3-yl)-pyrimidin-4-yl]-(4-morpholin-4-yl-benzyl)-amine]

IC50 (Table 3): 1 to 10 µM
SMILES: CS(=O)(=O)c1ccccc1CNc1ccnc(-c2cccnc2N)n1 [Compound 87, 2-(2-Aminopyridin-3-yl)-N-[2-(methylsulfonyl)benzyl]pyrimidin-4-amine]

IC50 (Table 5): 1 to 10 µM
SMILES: CN(c1ncccc1CNc1nccc(-c2cncc(C(F)(F)F)c2)n1)S(C)(=O)=O [Compound 251, N-Methyl-N-(3-{[4-(5-trifluoromethyl-pyridin-3-yl)-pyrimidin-2-ylamino]-methyl}-pyridin-2-yl)-methanesulfonamide]

IC50 (Table 1): 1 to 10 µM
SMILES: Clc1cncc(-c2nccc(NCC3CCCCC3)n2)c1 [Compound 37, [2-(5-Chloro-pyridin-3-yl)-pyrimidin-4-yl]-cyclohexylmethyl-amine]

IC50 (Table 5): 0.1 to 1 µM
SMILES: Fc1cccnc1CNc1ccnc(-c2cncc(C(F)(F)F)c2)n1 [Compound 208, (3-Fluoro-pyridin-2-ylmethyl)-[2-(5-trifluoromethyl-pyridin-3-yl)-pyrimidin-4-yl]-amine]

IC50 (Table 2): < 0.1 µM
SMILES: O=C(NCCc1cccnc1)c1cc(NCc2ccc(F)cc2F)nc(-c2cncc(C(F)(F)F)c2)n1 [Compound 70, 6-(2,4-Difluoro-benzylamino)-2-(5-trifluoromethyl-pyridin-3-yl)-pyrimidine-4-carboxylic acid (2-pyridin-3-yl-ethyl)-amide]

IC50 (Table 2): 0.1 to 1 µM
SMILES: Cc1nc(CCNC(=O)c2cc(NCc3ccc(F)cc3F)nc(-c3cncc(C(F)(F)F)c3)n2)cs1 [Compound 73, 6-(2,4-Difluoro-benzylamino)-2-(5-trifluoromethyl-pyridin-3-yl)-pyrimidine-4-carboxylic acid [2-(2-methyl-thiazol-4-yl)-ethyl]-amide]

IC50 (Table 1): > 10 µM
SMILES: COc1cncc(-c2nccc(NCc3cccc(Oc4cnccn4)c3)n2)c1 [Compound 3, [2-(5-Methoxy-pyridin-3-yl)-pyrimidin-4-yl]-[3-(pyrazin-2-yloxy)-benzyl]-amine]

IC50 (Table 5): > 10 µM
SMILES: COc1cncc(-c2nccc(NCc3csc(-c4ccccc4)n3)n2)c1 [Compound 221, [2-(5-Methoxy-pyridin-3-yl)-pyrimidin-4-yl]-(2-phenyl-thiazol-4-ylmethyl)-amine]

IC50 (Table 3): 1 to 10 µM
SMILES: Nc1ncccc1-c1nccc(NCc2cnccc2C(F)(F)F)n1 [Compound 103, 2-(2-Aminopyridin-3-yl)-N-{[4-(trifluoromethyl)pyridin-3-yl]methyl}pyrimidin-4-amine]

IC50 (Table 5): 1 to 10 µM
SMILES: COc1cncc(-c2nccc(NCc3cccnc3)n2)c1 [Compound 229, [2-(5-Methoxy-pyridin-3-yl)-pyrimidin-4-yl]-pyridin-3-ylmethyl-amine]

IC50 (Table 2): 0.1 to 1 µM
SMILES: CCc1noc(CCNC(=O)c2cc(NCc3ccc(F)cc3F)nc(-c3cncc(C(F)(F)F)c3)n2)n1 [Compound 74, 6-(2,4-Difluoro-benzylamino)-2-(5-trifluoromethyl-pyridin-3-yl)-pyrimidine-4-carboxylic acid [2-(3-ethyl-[1,2,4]oxadiazol-5-yl)-ethyl]-amide]

IC50 (Table 2): 0.1 to 1 µM
SMILES: OCC(Nc1ccnc(-c2cncc(C(F)(F)F)c2)n1)c1ccccc1 (stereo not drawn) [Compound 67, 2-Phenyl-2-[2-(5-trifluoromethyl-pyridin-3-yl)-pyrimidin-4-ylamino]-ethanol]

IC50 (Table 3): > 10 µM
SMILES: Nc1ncccc1-c1nccc(NCc2ccc(C(F)(F)F)cc2)n1 [Compound 96, 2-(2-Aminopyridin-3-yl)-N-[4-(trifluoromethyl)benzyl]pyrimidin-4-amine]

IC50 (Table 3): < 0.1 µM
SMILES: Nc1ncc(C(F)(F)F)cc1-c1nccc(NCc2ccccc2C(F)(F)F)n1 [Compound 136, 2-[2-Amino-5-(trifluoromethyl)pyridin-3-yl]-N-[2-(trifluoromethyl)benzyl]pyrimidin-4-amine]

IC50 (Table 5): 1 to 10 µM
SMILES: CS(=O)(=O)c1ccccc1-c1ccccc1CNc1ccnc(-c2cncc(C(F)(F)F)c2)n1 [Compound 196, (2′-Methanesulfonyl-biphenyl-2-ylmethyl)-[2-(5-trifluoromethyl-pyridin-3-yl)-pyrimidin-4-yl]-amine]

IC50 (Table 1): 1 to 10 µM
SMILES: COc1cncc(-c2nccc(NCc3ccc(OC)c(F)c3F)n2)c1 [Compound 1, (2,3-Difluoro-4-methoxy-benzyl)-[2-(5-methoxy-pyridin-3-yl)-pyrimidin-4-yl]-amine]

IC50 (Table 5): 0.1 to 1 µM
SMILES: COC(=O)c1cc(NCc2ccc(F)cc2F)nc(-c2cncc(C(F)(F)F)c2)n1 [Compound 273, 6-(2,4-Difluoro-benzylamino)-2-(5-trifluoromethyl-pyridin-3-yl)-pyrimidine-4-carboxylic acid methyl ester]

IC50 (Table 3): 0.1 to 1 µM
SMILES: Nc1ncccc1-c1nccc(NCc2ccc(Cl)cc2C(F)(F)F)n1 [Compound 109, 2-(2-Aminopyridin-3-yl)-N-[4-chloro-2-(trifluoromethyl)benzyl]pyrimidin-4-amine]

IC50 (Table 1): > 10 µM
SMILES: O=C(c1cncc(-c2nccc(NCc3cccc(Oc4cnccn4)c3)n2)c1)N1CCOCC1 [Compound 23, Morpholin-4-yl-(5-{4-[3-(pyrazin-2-yloxy)-benzylamino]-pyrimidin-2-yl}-pyridin-3-yl)-methanone]

IC50 (Table 5): 1 to 10 µM
SMILES: Fc1cc(Cl)ccc1CNc1cc(-c2cncc(C(F)(F)F)c2)ncn1 [Compound 253, (4-Chloro-2-fluoro-benzyl)-[6-(5-trifluoromethyl-pyridin-3-yl)-pyrimidin-4-yl]-amine]

IC50 (Table 3): < 0.1 µM
SMILES: FC(F)(F)c1cncc(-c2nccc(NCc3cccc4nsnc34)n2)c1 [Compound 133, N-(2,1,3-Benzothiadiazol-4-ylmethyl)-2-[5-(trifluoromethyl)pyridin-3-yl]pyrimidin-4-amine]

IC50 (Table 5): 0.1 to 1 µM
SMILES: COc1cncc(-c2nccc(NCc3ncccc3F)n2)c1 [Compound 214, (3-Fluoro-pyridin-2-ylmethyl)-[2-(5-methoxy-pyridin-3-yl)-pyrimidin-4-yl]-amine]

IC50 (Table 3): 1 to 10 µM
SMILES: Nc1ncccc1-c1nccc(NCc2ccc(F)cc2)n1 [Compound 80, 2-(2-Aminopyridin-3-yl)-N-(4-fluorobenzyl)pyrimidin-4-amine]

IC50 (Table 1): > 10 µM
SMILES: COc1cncc(-c2nccc(NCc3cccc4c3OC(C)(C)C4)n2)c1 [Compound 17, (2,2-Dimethyl-2,3-dihydro-benzofuran-7-ylmethyl)-[2-(5-methoxy-pyridin-3-yl)-pyrimidin-4-yl]-amine]

IC50 (Table 5): 0.1 to 1 µM
SMILES: COc1cncc(-c2nccc(NCc3ccccn3)n2)c1 [Compound 228, [2-(5-Methoxy-pyridin-3-yl)-pyrimidin-4-yl]-pyridin-2-ylmethyl-amine]

IC50 (Table 1): > 10 µM
SMILES: Fc1cncc(-c2nccc(NCc3ccc4c(c3)OCCO4)n2)c1 [Compound 12, (2,3-Dihydro-benzo[1,4]dioxin-6-ylmethyl)-[2-(5-fluoro-pyridin-3-yl)-pyrimidin-4-yl]-amine]

IC50 (Table 1): 0.1 to 1 µM
SMILES: Fc1ccc(CNc2ccnc(-c3cncc(Cl)c3)n2)cc1 [Compound 39, [2-(5-Chloro-pyridin-3-yl)-pyrimidin-4-yl]-(4-fluoro-benzyl)-amine]

IC50 (Table 5): 1 to 10 µM
SMILES: Fc1ccc(CNc2cc(-c3cncc(C(F)(F)F)c3)nc(-c3cncc(C(F)(F)F)c3)n2)c(F)c1 [Compound 266, [2,6-Bis-(5-trifluoromethyl-pyridin-3-yl)-pyrimidin-4-yl]-(2,4-difluoro-benzyl)-amine]

IC50 (Table 5): < 0.1 µM
SMILES: Fc1ccc(CNc2cccc(-c3cncc(C(F)(F)F)c3)n2)c(F)c1 [Compound 231, (2,4-Difluoro-benzyl)-(5′-trifluoromethyl-[2,3′]bipyridinyl-6-yl)-amine]

IC50 (Table 5): 0.1 to 1 µM
SMILES: Fc1ccc(CNc2nc(-c3cncc(C(F)(F)F)c3)nc3c2ncn3C2CCCCO2)c(F)c1 (stereo not drawn) [Compound 243, (2,4-Difluoro-benzyl)-[9-(tetrahydro-pyran-2-yl)-2-(5-trifluoromethyl-pyridin-3-yl)-9H-purin-6-yl]-amine]

IC50 (Table 3): > 10 µM
SMILES: Nc1ncccc1-c1nccc(NCc2ccncc2)n1 [Compound 128, 2-(2-Aminopyridin-3-yl)-N-(pyridin-4-ylmethyl)pyrimidin-4-amine]
